Test results: US20150056702A1, “METHOD AND KIT FOR CULTURING STEM CELLS” (China Medical University, priority 2013, published 2015)

Columns and labels:
Format in all cases: cell-based, mouse
Stat3 = test: Real-time PCR, Stat3 mRNA in ES cells; conditions: for Stat3 Gene expression level: ES cells, control group = 100%
Method: (§1) An experimental group medium (BP5, BP10, BP20 or BP40) and a control group medium (without BP) were added respectively to perform the following steps. ES cells were cultured with an initial density of 1×10^4 per well in a 6-well culture dish. The medium was removed until the cells growth to be about 70 to 80% confluence, and then 1 ml TRIzol (Invitrogen) was added into each well. The cells were incubated for 5 minutes, and then was scraped by a spatula and placed into a 1.5 ml microtube to be lysed adequately. Chloroform (0.2 ml) was added into the microtubes. The mixture was shaken up and down for 15 seconds, and then incubated at room temperature for 2 to 3 minutes. Thereafter, the mixture was centrifuged at 12000 rpm at 4° C. for 15 minutes, and the supernatant was removed into another 1.5 ml microtube and isopropanol (0.5 ml) was added into the microtube with well mixing. The mixture was incubated at room temperature for 10 minutes and then centrifuged at 12000 rpm at 4° C. for 10 minutes. The supernatant was then removed. One ml of 70% ethanol containing DEPC.H2O was used to wash the remaining sediment. The sediment was centrifuged at 7500 rpm at 4° C. for 5 minutes. The supernatant was removed. The sediment was dried by vacuum suction. The dried samples were dissolved in about 0.01 to 0.02 ml of DEPC.H2O to obtain the experimental group RNA and control group RNA. Both groups were stored at −80° C.
(§2) The OD value of RNA samples in both groups obtained from the above Experiment I were measured at a wavelength of 260 nm (RNA: OD260=1 for a 40 μg/mL solution). Each RNA sample (2 μl) was added with RNA-free water until the volume of the sample reached 10 μl. Two μl oligo (dT) (100 μg/ml) was added into each sample, and the samples were incubated at 65° C. for 5 minutes. Then, the samples were immediately placed on ice and spun down. Next, 6.5 μl of a reaction solution [4 μl of 5× buffer+1 μl of 0.1 M DTT+1 μl of RNase out+0.5 μl of SSIII (Invitrogen)] was added into each of the samples, and the samples were incubated at 50° C. for about 30 to 60 minutes and at 75° C. for 15 minutes to obtain the experimental group cDNA and control group cDNA. Both groups were stored at −80° C.
(§3) This experiment was used to detect the expression levels of ES cell-related genes, i.e., Oct4 and Sox2, etc. First, 4 μl of the experimental group cDNA or control group cDNA was added into each well of a 96-well micro-reaction plate, and mixed with 6 μl of a reaction solution [0.5 μl of 6 μM forward primer+0.5 μl of 6 μM reverse primer+5 μl of SYBR Green PCR Master mix (Roche)], wherein the SYBR Green PCR Master mix included the reagents needed for Q-PCR, such as dNTPs, MgCl, Taq DNA polymerase and 2×SYBR® Green I solution. […] The cycle threshold (CT) values were measured. […]

EGF = test: Real-time PCR, cytokine gene EGF in ES cells; conditions: for EGF mRNA expression level: ES cells, control group = 100%
Method: as §1, §2, §3

LIF = test: Real-time PCR, cytokine gene LIF in ES cells; conditions: for LIF mRNA expression level: ES cells, control group = 100%
Method: as §1, §2, §3

IL11 = test: Real-time PCR, cytokine gene IL11 in ES cells; conditions: for IL11 mRNA expression level: ES cells, control group = 100%
Method: as §1, §2, §3

iPS cells = test: Alkaline phosphatase staining of iPS cells; conditions: 72 hours, control group = 100%
Method: The protocol shown in experiment A was repeated, while an iPS cell (received from Riken Research Center, Japan) was cultured at step (4).
The protocol shown in experiment C was repeated, while an iPS cell (received from Riken Research Center, Japan) was cultured at step (2).
Alkaline phosphatase is a marker protein of stem cells. The activity measured by staining could be used to determine if BP can effectively maintain the self-renewal and/or pluripotency of stem cells.
An experimental group medium (BP5, BP10, BP20 or BP40), a LIF-containing medium (without BP) and a control group medium (without BP) were used respectively to culture ES cells in a 6-well culture dish with an initial density of 1×10^4 per well for 72 hours. The medium was removed and the cells were washed two times with PBS. Next, PBS was removed, and 1 ml of 80% ethanol was added into each well to perform the fixation at 4° C. for 2 to 24 hours. Next, ethanol was removed, and then the cells were washed one time with distilled water. The distilled water was added again to soak the cells for 2 to 3 minutes, and then be removed. Next, the cells were soaked with a Tris-HCl buffer (100 mM, pH 8.2 to 8.5) at room temperature for 5 minutes, and then, the buffer was removed. Next, a Leukocyte Alkaline Phosphatase kit (Vector) was used to perform the staining for 20 to 30 minutes, and then the Alkaline Phosphatase Substrate working solution was removed, the cells were soaked and washed by Tris-HCl buffer (100 mM, pH 8.2 to 8.5) and then be observed by a fluorescent microscope to count the number of the AP-positive clones. The undifferentiated ES cells with a higher activity show a red color, while the differentiated ES cells with a lower activity show a weak red color or are even colorless.
By using the above culture conditions, an experimental group medium (BP5, BP10, BP20 or BP40), a LIF-containing medium (without BP), and a control group medium (without BP) were used respectively to culture iPS cells. Then, the staining of iPS cells was performed by the steps described above. The undifferentiated iPS cells with a higher activity show a red color and the differentiated iPS cells with a lower activity show a weak red color or are even colorless.

[1] = LIF-containing medium (LIF 4 ng/ml, without BP)
[2] = LIF-containing medium (LIF 4 ng/ml)
[3] = BP10 medium (about 10 μg BP/ml)
[4] = BP-containing ES cell medium, result in words

“LIF: multifunctional cell factor used to maintain pluripotency of stem cells; LIF-containing medium (4 ng/ml, without BP) as comparison” was tested. Which “Stat3 Gene expression level” value (Stat3; [1]) did it give?
Its value is 194%.

What about the “EGF mRNA expression level” value (EGF; [2]) of the same molecule?
Its value is 145%.

What about the “LIF mRNA expression level” value (LIF; [2]) of the same molecule?
Its value is 81%.

What about the “IL11 mRNA expression level” value (IL11; [2]) of the same molecule?
Its value is 99%.

What about the AP-positive clones (iPS cells; [1]) of the same molecule?
Its AP-positive clones is 226%.

How did the “Stat3 Gene expression level” value (Stat3; BP5 medium (about 5 μg BP/ml)) turn out when `CCCC=C1OC(=O)c2ccccc21` [BP, n-butylidenephthalide] was run?
The value was 169%.

What about the “Stat3 Gene expression level” value (Stat3; [3]) of the same molecule?
Its value is 151%.

And the “mRNA expression level of Stat3” value (Stat3; BP-containing ES cell medium (BP5 or BP10), result in words)?
Its value is “significantly up-regulated”.

What about the “EGF mRNA expression level” value (EGF; BP5 medium (about 5 μg BP/ml)) of the same molecule?
Its value is 110%.

And the “EGF mRNA expression level” value (EGF; [3])?
The value was 204%.

And the “mRNA expression level of EGF” value (EGF; [4])?
Its value is “significantly up-regulated”.

What about the “LIF mRNA expression level” value (LIF; BP5 medium (about 5 μg BP/ml)) of the same molecule?
Its value is 113%.

What about the “LIF mRNA expression level” value (LIF; [3]) of the same molecule?
The value was 184%.

What about the “mRNA expression level of LIF” value (LIF; [4]) of the same molecule?
The value was “significantly up-regulated”.

And the “IL11 mRNA expression level” value (IL11; BP5 medium (about 5 μg BP/ml))?
The value was 93%.

What about the “IL11 mRNA expression level” value (IL11; [3]) of the same molecule?
The value was 191%.

What about the “mRNA expression level of IL-11” value (IL11; [4]) of the same molecule?
The value was “significantly up-regulated”.

What about the AP-positive clones (iPS cells; BP5 medium (about 5 μg BP/ml)) of the same molecule?
The AP-positive clones was 85%.

And the AP-positive clones (iPS cells; [3])?
Its AP-positive clones is 128%.

And the AP-positive clones (iPS cells; BP20 medium (about 20 μg BP/ml))?
The AP-positive clones was 192%.

What about the AP-positive clones (iPS cells; BP40 medium (about 40 μg BP/ml)) of the same molecule?
Its AP-positive clones is 129%.
